In patent publication US10221163B2 (priority 2015, dated 2019):
Read-outs that look alike come from different tables or passages of the source.

Assays:
[1] = molecular target: VIM-1 (Pseudomonas aeruginosa (strain ATCC 15692 / DSM 22644 / CIP 104116 / JCM 14847 / LMG 12228 / 1C / PRS 101 / PAO1), UniProt A0A0F7KYQ8); assay: biochemical; conditions: CCF2-FA substrate, 30 pM enzyme, 2 hours at 25° C.
How it was run: (§1)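 IC50 values derive from 4-parameter fits of percent inhibition against inhibitor concentration on semi-log axes. Activity was monitored by fluorescence with the CCF2-FA substrate after a 2-hour, 25° C incubation of compound, enzyme and substrate.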

[2] = molecular target: NDM-1 (Klebsiella pneumoniae, UniProt C7C422); assay: biochemical; assay type: biochemical; conditions: fluorescence assay, CCF2-FA substrate, 1 pM enzyme, 2 hours at 25° C.; read-out: NDM-1 IC50
Chain of NDM-1 (C7C422 whole entry, looked up, species assumed): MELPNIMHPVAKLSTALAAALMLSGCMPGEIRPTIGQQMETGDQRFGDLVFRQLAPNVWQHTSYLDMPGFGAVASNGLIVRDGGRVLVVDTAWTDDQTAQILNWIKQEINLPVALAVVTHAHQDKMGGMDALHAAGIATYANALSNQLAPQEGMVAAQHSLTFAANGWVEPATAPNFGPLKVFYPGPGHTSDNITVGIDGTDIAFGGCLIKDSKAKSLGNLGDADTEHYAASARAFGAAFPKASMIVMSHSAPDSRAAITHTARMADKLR
How it was run: as §1

[3] = molecular target: IMP-1 (Serratia marcescens, UniProt P52699); assay: biochemical; assay type: biochemical; conditions: fluorescence assay, CCF2-FA substrate, 2 pM enzyme, 2 hours at 25° C.; read-out: IMP-1 IC50
Chain of IMP-1 (P52699 whole entry, looked up, species assumed): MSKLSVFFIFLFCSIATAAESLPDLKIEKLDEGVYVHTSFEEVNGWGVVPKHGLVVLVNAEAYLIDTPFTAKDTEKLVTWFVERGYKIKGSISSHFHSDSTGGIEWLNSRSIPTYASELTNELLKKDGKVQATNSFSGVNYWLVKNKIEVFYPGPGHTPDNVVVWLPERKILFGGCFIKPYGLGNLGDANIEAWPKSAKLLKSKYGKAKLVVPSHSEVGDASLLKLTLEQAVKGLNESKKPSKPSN
How it was run: as §1

[4] = test system: Pseudomonas aeruginosa efflux− (MB9799), IMP-1; assay type: cell-based; conditions: C, D serine β-lactamase inhibitor closely related to relebactam; for P. aeruginosa expressing IMP-1, efflux − (MB9799) MITC95: concentration restoring susceptibility to imipenem at 2 μg/mL in the presence of a class A
How it was run: (§2)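 PAO1 pair, broth microdilution; fixed β-lactam (imipenem/ceftazidime) at ~CLSI breakpoint + fixed class A/C BLI for AmpC; serial MBLi titration; endpoint = MBLi conc. restoring susceptibility; MB9798:MB9799 ratio = efflux liability.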

[5] = test system: Pseudomonas aeruginosa MB9798 vs MB9799
Text: The strain background was Pseudomonas aeruginosa PAO1.
The strain set was then used as a pair to determine the effect of metallo-β-lactamase inhibitors of Formula I on the MIC of imipenem and/or ceftazidime. A fixed concentration of antibiotic was included in standard microbroth MIC tests, usually at the CLSI (Clinical and Laboratory Standards Institute) breakpoint concentration. A fixed amount of a class A/C beta-lactamase inhibitor was also included to inhibit the resident Pseudomonas AmpC enzyme. A serial titration of the metallo-β-lactamase inhibitor was included and the concentration of metallo-β-lactamase inhibitor which restores susceptibility of the strain to the included antibiotic was recorded. That concentration of metallo-β-lactamase inhibitor was then compared between the two strains to determine the fold difference between the efflux+ (MB9798) and efflux− (MB9799) strains. This was taken as an indication of the extent to which the MBLi is subject to efflux.

[6] = test system: Escherichia coli expressing NDM-1 (CLB30005, CLB30016); assay type: cell-based; conditions: with imipenem 1 μg/ml; for Escherichia coli expressing NDM-1 (CLB30016) MITC95: 95% inhibition of bacterial growth; for Escherichia coli MITC95: NDM-1 strain, 95% inhibition of growth
How it was run: (§3)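 Clinical strains grown overnight on blood agar at 35°C, colonies suspended in saline, diluted 1:100 into 1.1×CAMHB. Test compound titrated with imipenem at 1 μg/ml; incubated 22–24 h at 35°C, growth read by absorbance.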

[7] = test system: Klebsiella pneumoniae expressing VIM-1 (IHMA599644); assay type: cell-based; conditions: for Klebsiella pneumoniae expressing VIM-1 (IHMA599644) MITC95: with imipenem 1 μg/ml, 95% inhibition of bacterial growth; for Klebsiella pneumoniae MITC95: VIM-1 strain IHMA599644, with imipenem 1 μg/ml, 95% inhibition of growth
How it was run: as §3

[8] = test system: Serratia marcescens expressing IMP-1 (CL5741); assay type: cell-based; conditions: for Serratia marcescens expressing IMP-1 (CL5741) MITC95: with imipenem 1 μg/ml, 95% inhibition of bacterial growth; for Serratia marcescens MITC95: IMP-1 strain CL5741, with imipenem 1 μg/ml, 95% inhibition of growth
How it was run: as §3

[9] = test system: Pseudomonas aeruginosa efflux+ (MB9798), IMP-1; assay type: cell-based; parameters: Concentration of metallo-β-lactamase inhibitor which restores susceptibility of efflux + (MB9798) strain to imipenem: unit not given here; conditions: C, D serine β-lactamase inhibitor closely related to relebactam; for P. aeruginosa expressing IMP-1, efflux + (MB9798) MITC95: concentration restoring susceptibility to imipenem at 2 μg/mL in the presence of a class A
How it was run: as §2

[10] = fluorescence assay, read-out: VIM-1 IC50
[11] = ratio MITC95 PA_9798/MITC95 PA_9799

Row | Structure (SMILES) | IC50 [1, 10] [nM] | IC50 [2] [nM] | IC50 [3] [nM] | P. aeruginosa expressing IMP-1, efflux − (MB9799) MITC95 [4] [µM] | Efflux ratio [5, 11] | Escherichia coli expressing NDM-1 (CLB30016) MITC95 [6] [µM] | Klebsiella pneumoniae expressing VIM-1 (IHMA599644) MITC95 [7] [µM] | Serratia marcescens expressing IMP-1 (CL5741) MITC95 [8] [µM] | P. aeruginosa expressing IMP-1, efflux + (MB9798) MITC95 [9] [µM] | IC50 ([1]; VIM-1 IC50, fluorescence assay) [nM] | Concentration of metallo-β-lactamase inhibitor which restores susceptibility of efflux − (MB9799) strain to imipenem ([4]; efflux− MB9799, imipenem at 2 μg/mL, in the presence of a class A) | Efflux ratio ([5]; fold difference between efflux+ (MB9798) and efflux− (MB9799) strains, imipenem at 2 μg/mL) | Escherichia coli MITC95 [6] [µM] | Klebsiella pneumoniae MITC95 [7] [µM] | Serratia marcescens MITC95 [8] [µM] | Concentration of metallo-β-lactamase inhibitor which restores susceptibility of efflux + (MB9798) strain to imipenem ([9]; efflux+ MB9798, imipenem at 2 μg/mL, in the presence of a class A)
1 | NS(=O)(=O)c1c(S(=O)(=O)N[C@@H]2CCNC2)ccc(-c2cccc3[nH]cnc23)c1-c1nn[nH]n1 [Example 193, 4-(1H-benzo[d]imidazol-4-yl)-N1-((R)-pyrrolidin-3-yl)-3-(2H-tetrazol-5-yl)benzene-1,2-disulfonamide] | 0.113 | 0.0392 | 0.211 | 0.7813 | 1.00 | 1.563 | 2.344 | 1.563 | 0.7813 | – | – | – | – | – | – | –
2 | NC[C@@H](O)CNS(=O)(=O)c1ccc(-c2cnc(N)c(F)c2)c(-c2nn[nH]n2)c1S(N)(=O)=O [Example 478, (R)-N1-(3-amino-2-hydroxypropyl)-4-(6-amino-5-fluoropyridin-3-yl)-3-(2H-tetrazol-5-yl)benzene-1,2-disulfonamide] | – | 0.159 | 0.677 | – | – | – | – | – | – | 0.0914 | 0.7813 | 1.00 | 1.563 | 3.125 | 1.563 | 0.7813
3 | Nc1nc2c(-c3ccc(S(=O)(=O)N[C@@H]4CCCNC4)c(S(N)(=O)=O)c3-c3nnn[nH]3)cccc2[nH]1 [Example 178, (R)-4-(2-amino-1H-benzo[d]imidazol-4-yl)-N^1-(piperidin-3-yl)-3-(1H-tetrazol-5-yl)benzene-1,2-disulfonamide] | 0.266 | 0.064 | 0.87 | 1.563 | 1.00 | 1.563 | 3.125 | 1.563 | 1.563 | – | – | – | – | – | – | –
4 | Nc1nc2c(-c3ccc(S(=O)(=O)NCC4(F)CNC4)c(S(N)(=O)=O)c3-c3nnn[nH]3)cccc2s1 [Example 46, 4-(2-amino-1,3-benzothiazol-4-yl)-N^1-[(3-fluoroazetidin-3-yl)methyl]-3-(1H-tetrazol-5-yl)benzene-1,2-disulfonamide] | 0.321 | 0.0572 | 0.289 | 1.563 | 0.50 | 6.25 | 3.125 | 1.563 | 0.7813 | – | – | – | – | – | – | –
5 | Nc1nc2c(-c3ccc(S(=O)(=O)NC[C@@H]4CCCN4)c(S(N)(=O)=O)c3-c3nn[nH]n3)cccc2[nH]1 [Example 262, (S)-4-(2-amino-1H-benzo[d]imidazol-4-yl)-N1-(pyrrolidin-2-ylmethyl)-3-(2H-tetrazol-5-yl)benzene-1,2-disulfonamide] | – | 0.0768 | 0.925 | 0.7813 | 1.00 | – | – | – | 0.7813 | 0.295 | – | – | 0.1953 | 0.7813 | 0.7813 | –
